Test results: patent publication US20230159510A1, “NOVEL PRMT5 INHIBITORS” (AMGEN INC., priority 2020, published 2023)

Key:
[1] = tested on: HCT116 MTAP null cells; test: HCT116 proliferation assay, MTAP null cells (CellTiter-Glo, 6 days); format: cell-based; conditions: HCT116-MTAP null, 144 h, read-out: Protif_ HCT116-MTAP null IC50
Summary of the method: (§1)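 Cells grown in RPMI 1640 + 10% FBS, plated overnight, then exposed for 6 days to 8- or 9-point 1:3 compound dilutions (top 1 or 10 µM) with DMSO control. Viability read by CellTiter-Glo luminescence.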

[2] = tested on: HCT116 WT cells; test: HCT116 proliferation assay, WT cells (CellTiter-Glo, 6 days); format: cell-based; conditions: Homo sapiens, HCT-116, 144 h, read-out: Prolif_HCT116-WT IC50
Summary of the method: as §1

Compound	IC50 [1]	IC50 [2]
COC[C@H](C1CC1)N(Cc1ccc(C(F)(F)F)cn1)C(=O)c1ccc2nc(N)c(C)cc2c1 (single isomer, unassigned) [Example 810]	594 nM	5400 nM
Cc1cc2cc(C(=O)N(Cc3ccc(C#N)c(C)n3)[C@H](C)c3ncccn3)ccc2nc1N [Example 750, 2-amino-N-((5-cyano-6-methyl-2-pyridinyl)methyl)-3-methyl-N-((1R)-1-(2-pyrimidinyl)ethyl)-6-quinolinecarboxamide]	177 nM	3140 nM
CO[C@@H]1CCOC[C@H]1N(Cc1ccc(C(F)(F)F)cn1)C(=O)c1ccc2nc(N)c(C)cc2c1 (single isomer, unassigned) [Example 782]	17 nM	460 nM
C[C@H](c1ncn(C)n1)N(Cc1ccc(C(F)F)cn1)C(=O)c1ccc2nc(N)c(I)cc2c1 [Example 839, (R)-2-amino-N-((5-(difluoromethyl)pyridin-2-yl)methyl)-3-iodo-N-(1-(1-methyl-1H-1,2,4-triazol-3-yl)ethyl)quinoline-6-carboxamide]	57 nM	1990 nM
Cc1cc2cc(C(=O)N(Cc3ccc(C(F)(F)F)cn3)[C@@H]3COCC[C@H]3F)ccc2nc1N (mixture of isomers) [Example 749, 2-amino-N-((3R,4R)-4-fluorotetrahydro-2H-pyran-3-yl)-3-methyl-N-((5-(trifluoromethyl)-2-pyridinyl)methyl)-6-quinolinecarboxamide and 2-amino-N-((3S,4S)-4-fluorotetrahydro-2H-pyran-3-yl)-3-methyl-N-((5-(trifluoromethyl)-2-pyridinyl)methyl)-6-quinolinecarboxamide]	95 nM	2150 nM
CCOc1ccc(CN(C(=O)c2cnc3nc(N)c(I)cc3c2)[C@H](C)c2ncccn2)nn1 [Example 772, (R)-7-amino-N-((6-ethoxypyridazin-3-yl)methyl)-6-iodo-N-(1-(pyrimidin-2-yl)ethyl)-1,8-naphthyridine-3-carboxamide]	437 nM	17600 nM
Cc1cc2cc(C(=O)N(CCOC(F)(F)F)Cc3ccc(C(F)(F)F)cn3)ccc2nc1N [Example 734, 2-amino-3-methyl-N-(2-(trifluoromethoxy)ethyl)-N-((5-(trifluoromethyl)-2-pyridinyl)methyl)-6-quinolinecarboxamide]	994 nM	> 10000 nM
COc1ccc(CN(C[C@H](OC)C(F)(F)F)C(=O)c2ccc3nc(N)c(C)cc3c2)nn1 (single isomer, unassigned) [Example 774]	139 nM	5210 nM
C[C@H](c1ncccc1F)N(Cc1ccc(Br)nn1)C(=O)c1ccc2nc(N)c(Cl)cc2c1 [Example 739, 2-amino-N-((6-bromo-3-pyridazinyl)methyl)-3-chloro-N-((1R)-1-(3-fluoro-2-pyridinyl)ethyl)-6-quinolinecarboxamide]	355 nM	> 10000 nM
C[C@H](c1cccc(F)n1)N(Cc1ccc(C(F)(F)F)cn1)C(=O)c1cnc2nc(N)c(Br)cc2c1 [Example 800, (R)-7-amino-6-bromo-N-(1-(6-fluoropyridin-2-yl)ethyl)-N-((5-(trifluoromethyl)pyridin-2-yl)methyl)-1,8-naphthyridine-3-carboxamide]	173 nM	2790 nM
C[C@H](c1ncccn1)N(Cc1ccc(Cl)nn1)C(=O)c1ccc2nc(N)c(Br)cc2c1 [Example 773, (R)-2-amino-3-bromo-N-((6-chloropyridazin-3-yl)methyl)-N-(1-(pyrimidin-2-yl)ethyl)quinoline-6-carboxamide]	304 nM	> 10000 nM
Cc1cc2cc(C(=O)N(Cc3ccc(C(F)(F)F)cn3)[C@@H]3CCOC[C@H]3O)ccc2nc1N (mixture of isomers) [Example 803, 2-amino-N-((3R,4S)-3-hydroxytetrahydro-2H-pyran-4-yl)-3-methyl-N-((5-(trifluoromethyl)-2-pyridinyl)methyl)-6-quinolinecarboxamide and 2-amino-N-((3S,4R)-3-hydroxytetrahydro-2H-pyran-4-yl)-3-methyl-N-((5-(trifluoromethyl)-2-pyridinyl)methyl)-6-quinolinecarboxamide]	412 nM	> 10000 nM
C[C@H](c1ncccc1F)N(Cc1ccc(C(F)(F)F)nn1)C(=O)c1ccc2nc(N)c(Br)cc2c1 [Example 737, 2-amino-3-bromo-N-((1R)-1-(3-fluoro-2-pyridinyl)ethyl)-N-((6-(trifluoromethyl)-3-pyridazinyl)methyl)-6-quinolinecarboxamide]	148 nM	6800 nM
C[C@H](c1cscn1)N(Cc1ccc(C(F)(F)F)nn1)C(=O)c1cnc2nc(N)c(Br)cc2c1 (single isomer, unassigned) [Example 787]	59 nM	1740 nM
N#CC[C@@H](C1CC1)N(Cc1ccc(C(F)(F)F)cn1)C(=O)c1ccc2nc(N)c(Br)cc2c1 [Example 778, (S)-2-amino-3-bromo-N-(2-cyano-1-cyclopropylethyl)-N-((5-(trifluoromethyl)pyridin-2-yl)methyl)quinoline-6-carboxamide]	72 nM	2050 nM
Cc1cc2cc(C(=O)N(Cc3ccc(C(F)(F)F)cn3)[C@@H]3CC(F)(F)C[C@H]3O)ccc2nc1N (single isomer, unassigned) [Example 780]	144 nM	1800 nM
Cc1cc2c(C)c(C(=O)N(Cc3ccc(C(F)(F)F)cn3)[C@H](C)c3ncccn3)ccc2nc1N [Example 770, 2-amino-3,5-dimethyl-N-((1R)-1-(2-pyrimidinyl)ethyl)-N-((5-(trifluoromethyl)-2-pyridinyl)methyl)-6-quinolinecarboxamide]	132 nM	4750 nM
Cc1cc2cc(C(=O)N(Cc3ccccc3F)Cc3c[nH]c4cccnc34)ccc2nc1N [Example 711, 2-amino-N-[(2-fluorophenyl)methy1] -3-methyl-N-(1H-pyrrolo[3,2-b]pyridin-3-ylmethyl)quinoline-6-carboxamide]	279 nM	9780 nM
Cc1cc2cc(C(=O)N(Cc3ccc(C(F)(F)F)cn3)Cc3ncccn3)c(F)cc2nc1N [Example 319, 2-amino-7-fluoro-3-methyl-N-(2-pyrimidinylmethyl)-N-((5-(trifluoromethyl)-2-pyridinyl)methyl)-6-quinolinecarboxamide]	168 nM	4230 nM
Cc1cc2cc(C(=O)N(Cc3ccc(C(F)(F)F)cn3)[C@H](C)c3cccc(C#N)n3)ccc2nc1N (single isomer, unassigned) [Example 811]	422 nM	> 10000 nM
Cc1cc2cc(C(=O)N(Cc3ccc(Br)nn3)[C@@H]3CCCn4ncnc43)c(F)cc2nc1N [Example 757, (R)-2-amino-N-((6-bromopyridazin-3-yl)methyl)-7-fluoro-3-methyl-N-(5,6,7,8-tetrahydro-[1,2,4]triazolo[1,5-a]pyridin-8-yl)quinoline-6-carboxamide]	313 nM	8870 nM
CO[C@H]1Cc2ccccc2[C@@H]1N(Cc1ccc(C(F)(F)F)cn1)C(=O)c1ccc2nc(N)c(C)cc2c1 [Example 752, 2-amino-N-((1S,2S)-2-methoxy-2,3-dihydro-1H-inden-1-yl)-3-methyl-N-((5-(trifluoromethyl)-2-pyridinyl)methyl)-6-quinolinecarboxamide]	119 nM	1740 nM
